Earlier results, collected in paper PMC5748270 (Organic & biomolecular chemistry, 2017).

Key:
HSV-1 = settings: read-out: HSV-1 antiviral EC50
Plasmodium falciparum K1 = settings: selectivity on par with artesunate
B16 melanoma = settings: comparably to mitomycin C

manicol
EC50 (HSV-1): 350 nM | EC50 (HSV-2; read-out: HSV-2 antiviral EC50): 580 nM

Nc1nc2c(ncn2COCCO)c(=O)[nH]1 [ACV, acyclovir]
Potency against HSV-2 relative to HSV-1 (HSV-2; obtained previously under identical conditions): nearly an order of magnitude less potent

O=C(O)c1cc(O)c(O)c(=O)c(O)c1 [puberulic acid]
Antimalarial activity (Plasmodium falciparum K1): potent antimalarial activity

O=c1c(O)cccc(O)c1O [3,7-dHT, 3,7-Dihydroxytropolones]
Lifespan of mice bearing B16 melanoma (B16 melanoma): increases the lifespan | cell-based HIV antiviral activity (HIV): promising cell-based HIV antiviral activity | Activity against B16 melanoma cells relative to αHTs (B16 melanoma cells): an order of magnitude greater than αHTs
